Here are results for seven compounds from article PMC10223898 (Pharmaceuticals, 2023).

Like-named read-outs stand apart in the source and are kept apart here.

For assay [1], the system named is AI-2 QS in WHQ02 (E. coli BL21 ΔTolC pWHQ01). Description: Cell-based AI-2-mediated QS interference assay in WHQ02. The following applies: Escherichia coli. The text has this:
(§1) All chemicals were purchased from Sigma-Aldrich (St. Louis, MO, USA) if not otherwise stated. DPD was purchased from […] ZZBIO Co., Ltd. (Shanghai, China). The Kinase-Glo Max Luminescent kinase assay kit was purchased from Promega Corp. (Madison, WI, USA). The NTA sensor chip was purchased from GE Healthcare (Chicago, IL, USA). All compounds selected by virtual screening were purchased from Topscience Biotechnology Co., Ltd. (Shanghai, China). The QS reporter strains WHQ01 (S. typhimurium ATCC 202165 ΔTolC pWHQ01) and WHQ02 (E. coli BL21 ΔTolC pWHQ01) were donated by Huiqi Wen (Institute of Microbiology and Epidemiology, Academy of Military Sciences, Beijing, China). The plasmid pWHQ01 was constructed by cloning of lsr promoters and the luxCDABE luminescent gene. BamHI, XhoI, EcoRI, and NotI restriction endonucleases were purchased from New England Biolabs (Ipswich, MA, USA). pET-28a and pGEX-4T-1 were purchased from Novagen (Madison, WI, USA). E. coli BL21 (DE3) was purchased from TransGen Biotech Co., Ltd. (Beijing, China). The Ni-NTA column and GST Gravity column were purchased from Sangon Biotech (Shanghai, China). Sodium dodecyl sulfate-polyacrylamide gel electrophoresis (SDS-PAGE) gels and the Bradford Protein Assay Kit were purchased from Thermo Fisher Scientific (Waltham, MA, USA). Ultrafiltration centrifuge tubes were purchased from Millipore (Bedford, MA, USA). Dialysis bags were purchased from Beijing Solarbio Science and Technology Co., Ltd. (Beijing, China).
(§2) WHQ01 or WHQ02 was cultured overnight and diluted 1:100 in fresh LB supplemented with 100 µg/mL ampicillin and grown at 30 °C until the logarithmic phase (OD600 = 0.4–0.6). The bacterial culture was centrifuged at 4000× g for 5 min and the pellet was resuspended with fresh LB to prepare a suspension of 2 McFarland standard, which was added to a 96-well plate. In the experimental group, 62 compounds with final concentrations ranging from […] were added to obtain a total volume of 100 µL. A negative control comprising 100 µL of LB with DMSO of the same volume and a positive control comprising 100 µL of LB supplemented with 2% glucose and DMSO of the same volume were also added. Then, bacteria were grown at 37 °C for 3 h. The […] of WHQ01 or WHQ02 was directly regulated by the Lsr promoters to reflect the strength of AI-2 QS. Luminescence was measured by the Enspire 2300 microplate reader. To further study the effect of compounds on bacterial growth, a suspension containing 1 × 10^8 CFU/mL of WHQ01 or WHQ02 (0.5 McFarland standard) was diluted 1:100 with LB and added to a 96-well plate. Compounds were added to the 96-well plate at a final concentration of 100 µM and diluted in a gradient. DMSO of the same volume was added as the control group. The plate was grown at 37 °C for 18–24 h. The OD600 values were recorded using the Enspire 2300 microplate reader. The experiment was performed three times.

For assay [2], the target named is T1, LsrK (Salmonella typhimurium, UniProt Q8ZKQ6).
T1 construct: hexa-histidine (C); made in house; host or cells: E. coli BL21(DE3), pET-28a
Kind of assay: LsrK inhibition assay (Kinase-Glo luminescence). The format is biochemical, S. typhimurium. As to conditions: for inhibition at 200 µM: compound at 200 μM. As for the experimental part: (§3) To express LsrK or LsrK-N with a hexa-histidine tag at the C-terminus, the LsrK or LsrK-N encoding gene of S. typhimurium was amplified using primers carrying restriction endonuclease sites for BamHI and XhoI, respectively. The amplified product was cloned into the expression vector pET-28a with a C-terminal hexa-histidine tag and transfected into E. coli BL21(DE3) cells. The transformed cells were selected on LB agar plates containing 50 µg/mL kanamycin. The recombinant isolates were grown at 37 °C to the mid-log exponential phase. Protein synthesis was induced by 0.5 mM IPTG. After overnight growth, the cells were pelleted at 13,000× g for 10 min at 4 °C, resuspended in lysis buffer (50 mM NaH2PO4, 300 mM NaCl, and pH 8.0), and sonicated on ice for 10 cycles with a 30-s pulse and 30-s pause. The bacterial lysate was then centrifuged at 4 °C, 13,000× g for 10 min, and the supernatant passed through a 0.22 µm filter.
The LsrK inhibition assay was performed as described previously. The 62 selected compounds were dissolved in DMSO at a concentration of 2 mM. The assay was carried out with final concentrations of 300 nM LsrK, 100 μM ATP, and 300 μM DPD in a reaction buffer containing 25 mM TEA, pH 7.4, 800 μM MgCl2, and 0.1 mg/mL BSA. Specifically, 10 μL DPD, 10 μL LsrK, and 5 μL of the compound were added to a 96-well plate, and a 25 μL ATP or 25 μL reaction buffer was added after 30 min of incubation. The plate was incubated for 10 min at 37 °C, then 50 μL of kit reagent was added and the plate was incubated at 37 °C for 15 min. The luminescence signal was measured by the Enspire 2300 microplate reader (PerkinElmer). To confirm the activity of hits selected by primary screening, dose-response experiments were performed (200–6.25 µM). The inhibition % for each tested compound was determined as described previously. The IC50 values were calculated using the four logistic parameters.
(In general: Kinase-Glo reads ATP consumption through a luciferase reaction.)

Assay [3] concerns AI-2 QS in WHQ01 (S. typhimurium ATCC 202165 ΔTolC pWHQ01). Kind of assay: Cell-based AI-2-mediated QS interference assay in WHQ01. As to conditions: Salmonella enterica, read-out: WHQ01 (IC50).
Text: as §1, §2

The target of assay [4] is T1, LsrK. Description: LsrK inhibition assay (Kinase-Glo luminescence). The format is biochemical, S. typhimurium. The following applies: dose-response curves at 50, 100 and 150 μM ATP.
Assay [5] concerns the target T2, LsrK-N protein (HPr binding domain, residues 1-260) (Salmonella typhimurium, UniProt Q8ZKQ6).
T2 construct: hexa-histidine (C); made in house; host or cells: E. coli BL21(DE3), pET-28a
Kind of assay: SPR assay on immobilized LsrK-N. The arrangement: species or system S. typhimurium. On the procedure: as §3
(§4) Serial dilutions of compound 4171-0375 were injected, ranging in concentrations from 100 to 1.56 µM, an intermediate concentration of 12.5 µM was set as a repeat, and 1× PBS-T with 5% v/v DMSO was set as a control group. The association time was set to 120 s, the dissociation time was set to 130 s, and the flow rate was set to 30 µL/min. The resulting data were fit to the affinity binding model using Biacore Evaluation Software (GE Healthcare).

In assay [6] the target is T1, LsrK. Description: SPR assay on immobilized LsrK. In kind it is binding, S. typhimurium. On the procedure: as §3, §4
Where [7] appears, read: dose-response 200–6.25 µM, 100 μM ATP, 300 μM DPD, mean ± SD, n = 3, read-out: LsrK (IC50).
[8] abbreviates: dose-response assay, read-out: LsrK inhibition IC50.

T1 sequence (Q8ZKQ6 whole entry): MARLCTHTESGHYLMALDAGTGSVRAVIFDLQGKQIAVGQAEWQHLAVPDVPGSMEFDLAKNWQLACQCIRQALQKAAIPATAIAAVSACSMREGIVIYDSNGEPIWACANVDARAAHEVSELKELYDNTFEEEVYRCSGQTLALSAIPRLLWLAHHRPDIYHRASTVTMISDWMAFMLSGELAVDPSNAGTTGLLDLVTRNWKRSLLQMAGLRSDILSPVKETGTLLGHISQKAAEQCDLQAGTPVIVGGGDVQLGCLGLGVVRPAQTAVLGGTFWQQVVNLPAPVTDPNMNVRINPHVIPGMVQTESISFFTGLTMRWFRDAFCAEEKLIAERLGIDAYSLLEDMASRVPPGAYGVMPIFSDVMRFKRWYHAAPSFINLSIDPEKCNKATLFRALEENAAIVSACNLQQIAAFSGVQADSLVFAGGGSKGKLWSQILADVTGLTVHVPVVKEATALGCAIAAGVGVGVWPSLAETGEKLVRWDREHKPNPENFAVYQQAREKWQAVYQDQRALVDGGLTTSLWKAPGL
T2 sequence (Q8ZKQ6 1-260): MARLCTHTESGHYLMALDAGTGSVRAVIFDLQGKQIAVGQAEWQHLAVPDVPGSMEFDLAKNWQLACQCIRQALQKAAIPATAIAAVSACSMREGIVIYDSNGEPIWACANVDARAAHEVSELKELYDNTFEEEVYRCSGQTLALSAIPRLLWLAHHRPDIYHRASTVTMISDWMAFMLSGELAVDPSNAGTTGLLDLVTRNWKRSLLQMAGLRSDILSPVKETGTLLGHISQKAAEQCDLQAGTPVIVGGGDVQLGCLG

`COc1cc(/C=C2/SC(=S)N(c3cccc(C(F)(F)F)c3)C2=O)ccc1OCC(=O)O` [Compound 3229-1889]: the IC50 (commonly the midpoint of a concentration-inhibition curve) in assay [1] (BL21, read-out: WHQ02 (IC50)) worked out at 15 ± 1.24 µM; at LsrK [2] (setting [7]), 121 ± 5.37 µM; in assay [3], 24.7 ± 1.42 µM. In addition, on LsrK [2] (mean ± SD, n = 3), 200 µM produced 63 ± 4% inhibition.

With `CCOc1cc(/C=N/NC(=N)N)ccc1OCc1ccc(Cl)cc1` [Compound 4171-0375], the IC50 in assay [1] (BL21, read-out: AI-2 QS inhibition IC50 against WHQ02) was 29.1 ± 1.23 µM; in assay [1] (BL21, read-out: WHQ02 (IC50)), 30.1 ± 1.62 µM; at LsrK [2] (setting [7]), 26.1 ± 2.94 µM; on LsrK [2] (setting [8]) it was under 100 µM; in assay [3], 42.9 ± 1.63 µM. Besides, at LsrK [2] (mean ± SD, n = 3), testing at 200 µM gave an inhibition of 98 ± 7%. The “ATP competition (mode of inhibition)” value on LsrK [4] was “non-ATP competitive inhibitors”. In addition, the Kd (as a rule, a measure of binding affinity in units of concentration) in assay [5] (His-tagged LsrK-N on NTA chip, Biacore 8K, affinity model) worked out at 25.1 µM; at LsrK [6] (His-tagged LsrK on NTA chip, Biacore 8K, affinity model) it was 94.5 µM. Moreover, in assay [5] (sensorgram, in words), the “binding and dissociation behaviour on LsrK-N (SPR)” value was “quickly bound and dissociated”. Further, the “binding and dissociation behaviour on LsrK (SPR)” value on LsrK [6] (sensorgram, in words) was “quickly bound and dissociated”.

For the compound `CCOc1cc(C2NC(C(=O)O)CS2)ccc1OCc1c(F)cccc1Cl` (stereo not shown) [Compound 8012-5390], the IC50 was found to be 17.7 ± 0.98 µM in assay [1] (BL21, read-out: WHQ02 (IC50)); 147 ± 5.58 µM on LsrK [2] (setting [7]); 23.3 ± 1.05 µM in assay [3]. Moreover, on LsrK [2] (mean ± SD, n = 3), 200 µM produced 60 ± 4% inhibition.

Turning to `NCCc1cn(Cc2ccc(C(F)(F)F)cc2)nn1` [Compound 8020-4294], the half-inhibitory concentration (IC50) in assay [1] (BL21, read-out: WHQ02 (IC50)) was 67.2 ± 4.32 µM; at LsrK [2] (setting [7]), 148 ± 6.92 µM; in assay [3] it was 24.9 ± 1.1 µM. At LsrK [2] (mean ± SD, n = 3), 200 µM produced 65 ± 9% inhibition.

On to `Cc1c(CC(=O)O)c(=O)oc2c(C)c(OCc3ccc(F)cc3F)ccc12` [Compound D715-0257], for which the IC50 was 22.3 ± 2.15 µM in assay [1] (BL21, read-out: WHQ02 (IC50)); 153 ± 5.43 µM at LsrK [2] (setting [7]); 21.1 ± 1.18 µM in assay [3]. For the same compound, testing at 200 µM against LsrK [2] (mean ± SD, n = 3) gave an inhibition of 57 ± 7%.

Regarding `Cc1ccc(NC(=O)C[C@H](C)n2ccnc2)cc1Cl` [Compound G268-0878], the IC50 worked out at 42.3 ± 1.42 µM in assay [1] (BL21, read-out: WHQ02 (IC50)); 129 ± 6.14 µM on LsrK [2] (setting [7]); 30.6 ± 1.26 µM in assay [3]. Further, the inhibition – broadly, the drop in the measured response relative to a control, in per cent – at 200 µM at LsrK [2] (mean ± SD, n = 3) stood at 58 ± 5%.

`CN1CCN(C(=O)c2ccc(NCc3ccc(F)cc3)c(S(=O)(=O)Nc3cccc(C(F)(F)F)c3)c2)CC1` [Compound K659-0421]: the IC50 in assay [1] (BL21, read-out: WHQ02 (IC50)) is 17 ± 0.37 µM; at LsrK [2] (setting [7]), 73.7 ± 5.33 µM; at LsrK [2] (setting [8]) it was under 100 µM; in assay [3] it was 7.97 ± 0.38 µM. Further, testing at 200 µM on LsrK [2] (mean ± SD, n = 3) gave an inhibition of 75 ± 8%. The “ATP competition (mode of inhibition)” value at LsrK [4] is recorded as “non-ATP competitive inhibitors”.
